Assay results published in US8598114B2, “Antimicrobial compounds” (priority 2007, dated 2013).
Converted amounts (≈) assume the structure as drawn. Peptide text beside a SMILES is read from it. * marks the point of attachment. NHPhenethyl = c1ccc(CCN*)cc1

How the values were obtained:
[1] = system: trypsin; experiment: in vitro; assay type: in vitro ADME; conditions: pH 8.6
Procedure: Measurements and Calculation of Peptide Half-Life
Each peptide was dissolved in a 0.1 M NH4HCO3 buffer (pH 6.5) to yield a final peptide concentration of 1 mg/ml. A trypsin solution was prepared by dissolving 1 mg of trypsin in 50 ml 0.1 M NH4HCO3 buffer (pH 8.2). For the stability determination, 250 μl freshly made trypsin solution and 250 μl peptide solution were incubated in 2 ml of 0.1 M NH4HCO3 buffer (pH 8.6) at 37° C. on a rocking table. Aliquots of 0.5 ml were sampled at different time intervals, diluted with 0.5 ml water:acetonitrile (60:40 v/v) containing 1% TFA and analysed by RP-HPLC as described above. Samples without trypsin addition taken at 0 h and after 20 h at 37° C. were used as negative controls. Integration of the peak area at 254 nm for samples taken during the first 5 hours of the assay was used to generate the τ1/2.

[2] = system: Str. pyogenes; experiment: Minimal inhibitory concentration (Example 6); assay type: cell-based
[3] = system: MRSA; experiment: Minimal inhibitory concentration (Example 6); assay type: cell-based
[4] = system: S. aureus; experiment: Minimal inhibitory concentration (Example 6); assay type: cell-based
[5] = system: E. coli; experiment: Minimal inhibitory concentration (Example 6); assay type: cell-based

Structure (SMILES): N=C(N)NCCC[C@H](NC(=O)[C@H](Cc1ccc(-c2ccc(-c3ccccc3)cc2)cc1)NC(=O)[C@@H](N)CCCNC(=N)N)C(=O)NCCc1ccccc1 [Compound 5]
- half-life at 0.1 mg/ml [1]: > 24 h

Structure (SMILES): CC(C)(C)c1cc(C(C)(C)C)c2[nH]c(C(C)(C)C)c(C[C@H](NC(=O)[C@@H](N)CCCNC(=N)N)C(=O)N[C@@H](CCCNC(=N)N)C(=O)NCCc3ccccc3Br)c2c1 [—(CH2)2—(2-BrPh), H-Arg-Tbt-Arg-NH(CH)2(2-Br-phenyl)]
- Minimal inhibitory concentration Str. pyogenes [2]: 3 µg/mL (≈ 3.46 µM)
- Minimal inhibitory concentration MRSA [3]: 3 µg/mL (≈ 3.46 µM)
- Minimal inhibitory concentration S. aureus [4]: 3 µg/mL (≈ 3.46 µM)
- Minimal inhibitory concentration E. coli [5]: 6 µg/mL (≈ 6.92 µM)

Structure (SMILES): N=C(N)NCCC[C@H](NC(=O)[C@H](Cc1c[nH]c2ccccc12)NC(=O)[C@@H](N)CCCNC(=N)N)C(=O)NCCc1ccccc1 [Compound 6, reference compound] (H-Arg-Trp-Arg-NHPhenethyl)
- half-life at 0.1 mg/ml ([1]; isolated enzyme trypsin): 7 h

Structure (SMILES): N=C(N)NCCC[C@H](NC(=O)[C@H](Cc1ccc(-c2cccc3ccccc23)cc1)NC(=O)[C@@H](N)CCCNC(=N)N)C(=O)NCCc1ccccc1 [Compound 3]
- half-life at 0.1 mg/ml ([1]; isolated enzyme trypsin): 20 h
